Reference: patent US12133855B2, “Lipid-like nanocomplexes and uses thereof” (Trustees of Tufts College, priority 2018, dated 2024)
Where two headings read alike, the source gives them in different places.

Columns and labels:
Format in all cases: cell-based
HeLa-DsRed cells = conditions: for cell viability: 8 h exposure, MTT after 24 h; for cell morphology changes: bright field images
Procedure: All experiments were performed in quadruplicate.
In this context, the internalization mechanism of the (−30)GFP-Cre/LNPs complexes was studied at first, by introducing different endocytosis inhibitors, i.e., sucrose (clathrin-mediated endocytosis inhibitor), methyl-β-cyclodextrin (M-β-CD, cholesterol-depleting agent), dynasore (dynamin II inhibitor) and nystatin (caveolin-mediated endocytosis inhibitor), following our previously reported procedures. […] Comparing to other combinatorial library studies, it is clear that even loaded with same cargoes and tested against same cell line, different lipidoids with different chemical structures could be internalized through very distinct pathways. Next, the genome-editing efficiencies of (−30)GFP-Cre/LNPs were determined by flow cytometry after 24 h of incubation (with 8 h of (−30)GFP-Cre/LNPs complex exposure). Three different concentrations of protein/lipidoid complexes (25 nM/1.7 μg mL^−1, 50 nM/3.4 μg mL^−1, and 100 nM/6.6 μg mL^−1) were tested for each lipidoid nanoparticle. […] For example, the DsRed^+ cells were recorded as 10.5%/24.9%/88.9%, 13.5%/55.4%/88.8%, and 27.7%/47.8%/94.7% for (−30)GFP-Cre loaded 75-OCholB, 76-OCholB and 77-OCholB, respectively, at the protein concentration of 25, 50 and 100 nM. […] Then, the cytotoxicity profiles of (−30)GFP-Cre/LNPs, (−30)GFP-Cre/Lpf2k and naked (−30)GFP-Cre at different concentrations against HeLa-DsRed cells (8 h of exposure; (−30)GFP-Cre/LNPs=25 nM/1.7 μg mL^−1, 50 nM/3.4 μg mL^−1, and 100 nM/6.6 μg mL^−1) are measured using MTT assay after 24 h of incubation. […] For (−30)GFP-Cre/75-OCholB treated cells, the viabilities were determined to be 95.5%, 91.8% and 83.1%, at the protein concentration of 25, 50 and 100 nM, respectively; the numbers for (−30)GFP-Cre/76-OCholB and (−30)GFP-Cre/77-OCholB are 97.8%/98.2%/97.2 and 100.9%/96.6%/98.6%. […] Meanwhile, the morphology changes of HeLa-DsRed cell treated with different nanoparticle formulations were studied and the results are shown in FIG. 15E. […] Samples found in upper left quadrant are non-toxic and inefficient for delivery; samples in lower left quadrant are toxic and inefficient; samples in lower right quadrant are efficient but toxic; samples in upper right quadrant are non-toxic and efficient, which would be top candidates for further study. It is clear that Lpf2k (shown in dotted purple circle) at high concentration is relatively efficient for genome editing, while also toxic to the target cells. On the other hand, most of the (−30)GFP-Cre loaded OCholB LNPs are almost non-toxic when compared to (−30)GFP-Cre/Lpf2k, similar to naked (−30)GFP-Cre protein. 87-OCholB, 90-OCholB and 304-OCholB (shown in dotted dark blue circle) are less efficient for genome-editing; while high genome editing efficacy and excellent tolerability were achieved by using 75-OCholB, 76-OCholB and 77-OCholB (shown in dotted green circle).

[1] = tested on: B16F10 (mouse melanoma cells); experiment: GFP mRNA delivery (GFP+ cells); conditions: LNP/mRNA=10/1, [mRNA]=0.86 μg mL^−1, 24 h
Procedure: (§1) To examine the delivery spectrum of the newly developed LNPs, the GFP mRNA loaded OCholB LNPs were then challenged against other four types of cell lines. B16F10 (mouse melanoma cells), HEK 293 (human embryonic kidney cells), NIH 3T3 (mouse embryonic fibroblast cells) and Jurkat (human T lymphocyte cells) cells were tested (LNP/mRNA=10/1; [mRNA]=0.86 μg mL^−1; 24 h exposure) and the results are shown in FIG. 14D. As the positive control, Lpf2k turned out to be very efficient to deliver GFP mRNA into B16F10 (63.2% of GFP^+ cells), HEK 293 (80.1%) and NIH 3T3 (70.1%) cells, while slightly less efficient to Jurkat cell (28.7%), which is usually considered to be one of the most difficult-to-transfect cell lines. […] For example, 63.0%, 60.9%, 54.1% and 50.1% of GFP^+ cells were determined from mRNA/75-OCholB treated B16F10, HEK 293, NIH 3T3 and Jurkat cells; and the numbers for mRNA/76-OCholB treated cells were 70.7%, 75.8%, 24.1% and 7.7%, respectively. It was obvious that not only the types of lipidoids, but also the target cell lines could have huge impacts on the delivery efficacy. Overall, the positive control, Lpf2k, is a relatively high-activity broad-spectrum transfection reagent; most of the OCholB LNPs (6 out of 9) are also effective broad-spectrum transfection reagents under the tested conditions. […] It was expected that through further formulation optimization, such as adding excipients (helper lipids like small molecular phospholipids (e.g. DOPE and DSPC) and macromolecules lipids (e.g. PEG-DSPE and PEG-Ceramide)) into the LNPs and/or using more controllable self-assembly procedures, improved transfection efficiency of the fully substituted OCholB LNPs could be achieved.

[2] = tested on: NIH 3T3 (mouse embryonic fibroblast cells); experiment: GFP mRNA delivery (GFP+ cells); conditions: LNP/mRNA=10/1, [mRNA]=0.86 μg mL^−1, 24 h
Procedure: as §1

[3] = tested on: HEK 293 (human embryonic kidney cells); experiment: GFP mRNA delivery (GFP+ cells); conditions: LNP/mRNA=10/1, [mRNA]=0.86 μg mL^−1, 24 h
Procedure: as §1

[4] = (−30)GFP-Cre 25 nM/1.7 μg mL^−1
[5] = (−30)GFP-Cre 50 nM/3.4 μg mL^−1
[6] = (−30)GFP-Cre 100 nM/6.6 μg mL^−1

SMILES | cell viability (HeLa-DsRed cells; [4]) [%] | cell viability (HeLa-DsRed cells; [5]) [%] | cell viability (HeLa-DsRed cells; [6]) [%] | cell morphology changes (HeLa-DsRed cells) | GFP^+ cells [1] [%] | GFP^+ cells [2] [%] | GFP^+ cells [3] [%]
CCN(CC)CCN(CCC(=O)OCCSSCCNC(=O)OC1CCC2(C)C(=CCC3C2CCC2(C)C(C(C)CCCC(C)C)CCC32)C1)CCC(=O)OCCSSCCNC(=O)OC1CCC2(C)C(=CCC3C2CCC2(C)C(C(C)CCCC(C)C)CCC32)C1 (stereo not drawn) [Lipidoid 75-OCholB] | 95.5 | 91.8 | 83.1 | less affected | 63.0 | 54.1 | 60.9
CC(C)CCCC(C)C1CCC2C3CC=C4CC(OC(=O)NCCSSCCOC(=O)CCN(CCC(=O)OCCSSCCNC(=O)OC5CCC6(C)C(=CCC7C6CCC6(C)C(C(C)CCCC(C)C)CCC76)C5)CCN5CCCC5)CCC4(C)C3CCC12C (stereo not drawn) [Lipidoid 76-OCholB] | 97.8 | 98.2 | 97.2 | less affected | 70.7 | 24.1 | 75.8
CC(C)CCCC(C)C1CCC2C3CC=C4CC(OC(=O)NCCSSCCOC(=O)CCN(CCC(=O)OCCSSCCNC(=O)OC5CCC6(C)C(=CCC7C6CCC6(C)C(C(C)CCCC(C)C)CCC76)C5)CCC5CCCN5C)CCC4(C)C3CCC12C (stereo not drawn) [Lipidoid 77-OCholB] | 100.9 | 96.6 | 98.6 | less affected |  |  | 
